Data: ChEMBL document CHEMBL1909046, “DrugMatrix in vitro pharmacology data”

Columns and labels:
[1] = target: T1, Polyunsaturated fatty acid lipoxygenase ALOX15 (Oryctolagus cuniculus, UniProt P12530); test: biochemical; format: tissue-based, Reticulocytes;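 note: inhibition of 15-lipoxygenase enzyme activity measured with linoleic acid as the substrate; in other assays of this panel Not Active means under 50% inhibition at 10 µM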
T1 sequence (P12530 whole entry): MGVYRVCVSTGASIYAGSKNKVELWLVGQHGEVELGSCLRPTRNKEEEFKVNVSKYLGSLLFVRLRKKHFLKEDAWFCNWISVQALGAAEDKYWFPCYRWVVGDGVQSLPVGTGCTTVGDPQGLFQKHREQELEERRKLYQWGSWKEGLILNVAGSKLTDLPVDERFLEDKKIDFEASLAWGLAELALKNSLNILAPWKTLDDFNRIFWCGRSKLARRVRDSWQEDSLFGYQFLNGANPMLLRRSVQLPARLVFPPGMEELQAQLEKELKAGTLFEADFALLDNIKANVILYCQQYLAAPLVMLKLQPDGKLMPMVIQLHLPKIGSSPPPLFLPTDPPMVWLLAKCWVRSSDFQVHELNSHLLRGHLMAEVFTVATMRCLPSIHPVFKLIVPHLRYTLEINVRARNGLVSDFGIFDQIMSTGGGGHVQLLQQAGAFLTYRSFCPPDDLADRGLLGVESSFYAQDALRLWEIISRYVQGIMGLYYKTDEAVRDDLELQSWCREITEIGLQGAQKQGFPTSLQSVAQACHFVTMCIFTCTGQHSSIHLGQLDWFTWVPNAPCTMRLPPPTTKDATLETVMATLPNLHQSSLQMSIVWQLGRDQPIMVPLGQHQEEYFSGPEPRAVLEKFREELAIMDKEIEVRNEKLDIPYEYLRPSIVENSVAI

[2] = target: T2, Muscarinic acetylcholine receptor M4 (Homo sapiens, UniProt P08173); format: cell membranes, CHO-K1, Membrane; note: in other assays of this panel Not Active means under 50% inhibition at 10 µM
T2 sequence (P08173 whole entry): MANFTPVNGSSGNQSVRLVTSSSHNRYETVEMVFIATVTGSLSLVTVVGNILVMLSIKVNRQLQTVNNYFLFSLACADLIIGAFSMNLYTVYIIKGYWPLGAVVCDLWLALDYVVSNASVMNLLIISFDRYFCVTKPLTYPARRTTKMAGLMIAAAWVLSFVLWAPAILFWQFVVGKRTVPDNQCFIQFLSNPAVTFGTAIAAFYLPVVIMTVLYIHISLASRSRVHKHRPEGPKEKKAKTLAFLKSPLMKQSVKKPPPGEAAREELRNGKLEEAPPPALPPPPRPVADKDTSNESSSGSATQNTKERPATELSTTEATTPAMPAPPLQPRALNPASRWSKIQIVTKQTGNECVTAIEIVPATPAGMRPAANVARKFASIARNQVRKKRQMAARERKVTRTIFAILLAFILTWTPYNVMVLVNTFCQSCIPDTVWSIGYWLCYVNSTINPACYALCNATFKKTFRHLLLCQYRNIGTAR

[3] = target: T3, Cysteinyl leukotriene receptor 1 (Homo sapiens, UniProt Q9Y271); format: cell membranes, CHO-K1, Membrane; conditions: cho-k1; note: in other assays of this panel Not Active means under 50% inhibition at 10 µM
T3 sequence (Q9Y271 whole entry): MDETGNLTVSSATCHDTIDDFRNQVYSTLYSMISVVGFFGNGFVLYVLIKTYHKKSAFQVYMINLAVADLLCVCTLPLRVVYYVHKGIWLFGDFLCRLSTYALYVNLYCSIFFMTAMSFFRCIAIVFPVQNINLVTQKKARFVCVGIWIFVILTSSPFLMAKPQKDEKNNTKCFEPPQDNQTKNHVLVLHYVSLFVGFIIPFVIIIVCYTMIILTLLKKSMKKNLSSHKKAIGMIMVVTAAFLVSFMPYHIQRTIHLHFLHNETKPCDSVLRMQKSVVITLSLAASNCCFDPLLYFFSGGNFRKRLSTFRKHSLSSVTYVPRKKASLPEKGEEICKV

[4] = target: Sigma non-opioid intracellular receptor 1 (Homo sapiens, UniProt Q99720); test: DRUGMATRIX: Sigma1 radioligand binding (ligand: [3H] Haloperidol); format: cell membranes, Jurkat, Membrane; conditions: Not Active = under 50% inhibition at 10 µM
[5] = DRUGMATRIX: Atrial Natriuretic Factor (ANF) radioligand binding (ligand: [125I] ANF (rat)); format: cell membranes, Cavia porcellus, Dunkin-Hartley, Adrenal gland, Membrane; conditions: Not Active = under 50% inhibition at 10 µM
[6] = DRUGMATRIX: beta-Lactamase enzyme inhibition (substrate: Nitrocefin); parameters: species or system Bacillus cereus; conditions: Not Active = under 50% inhibition at 10 µM

Chain of Sigma non-opioid intracellular receptor 1 (Q99720 whole entry): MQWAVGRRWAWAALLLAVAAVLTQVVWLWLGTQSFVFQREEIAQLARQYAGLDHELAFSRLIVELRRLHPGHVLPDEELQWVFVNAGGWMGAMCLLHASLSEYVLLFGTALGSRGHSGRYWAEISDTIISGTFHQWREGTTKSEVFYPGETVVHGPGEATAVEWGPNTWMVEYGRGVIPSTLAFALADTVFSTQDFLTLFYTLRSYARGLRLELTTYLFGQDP

| Compound | IC50 ([1]; reticulocytes) | IC50 ([2]; cho-k1) | IC50 [3] | IC50 ([4]; jurkat) | IC50 [5] | Ki [5] | IC50 [6] | Ki [6] | IC50 ([2]; read-out: IC50) [nM] | Ki ([2]; read-out: Ki) [nM] | IC50 ([6]; read-out: IC50) [nM] | IC50 ([1]; read-out: IC50) [nM] | Ki ([1]; reticulocytes) | Ki ([2]; cho-k1) | Ki [3] | Ki ([4]; jurkat) | IC50 ([4]; read-out: IC50) [nM] | Ki ([4]; read-out: Ki) [nM] |
| --- | --- | --- | --- | --- | --- | --- | --- | --- | --- | --- | --- | --- | --- | --- | --- | --- | --- | --- |
| CC(C)(C#N)c1cc(Cn2cncn2)cc(C(C)(C)C#N)c1 [ANASTROZOLE] | Not Active | Not Active | Not Active | Not Active | Not Active | Not Active | Not Active | Not Active | – | – | – | – | – | – | – | – | – | – |
| CC12CCC(CC1=O)C2(C)C (configuration not stated) [CAMPHOR] | Not Active | Not Active | Not Active | Not Active | Not Active | Not Active | Not Active | Not Active | – | – | – | – | – | – | – | – | – | – |
| CC12CCC(CC1)C(C)(C)O2 [EUCALYPTOL] | Not Active | Not Active | Not Active | Not Active | Not Active | Not Active | Not Active | Not Active | – | – | – | – | – | – | – | – | – | – |
| Cc1ccnc2c1NC(=O)c1cccnc1N2C1CC1 [NEVIRAPINE] | Not Active | Not Active | Not Active | Not Active | Not Active | Not Active | Not Active | Not Active | – | – | – | – | – | – | – | – | – | – |
| Clc1cc(Cl)c(OCC#CI)cc1Cl [HALOPROGIN] | Not Active | Not Active | Not Active | Not Active | Not Active | Not Active | Not Active | Not Active | – | – | – | – | – | – | – | – | – | – |
| Oc1ccccc1 [PHENOL] | Not Active | Not Active | Not Active | Not Active | Not Active | Not Active | Not Active | Not Active | – | – | – | – | – | – | – | – | – | – |
| CCCCCCNC(=O)n1cc(F)c(=O)[nH]c1=O [CARMOFUR] | Not Active | Not Active | Not Active | Not Active | Not Active | Not Active | Not Active | Not Active | – | – | – | – | – | – | – | – | – | – |
| Nc1ccc(C(=O)O)c(O)c1 [AMINOSALICYLIC ACID] | Not Active | Not Active | Not Active | Not Active | Not Active | Not Active | Not Active | Not Active | – | – | – | – | – | – | – | – | – | – |
| COc1cc(NC(C)CCCN)c2ncccc2c1 (configuration not stated) [PRIMAQUINE] | Not Active | Not Active | Not Active | Not Active | Not Active | Not Active | Not Active | Not Active | – | – | – | – | – | – | – | – | – | – |
| Cc1cc(C(C)(C)C)c(O)c(C)c1CC1=NCCN1 [OXYMETAZOLINE] | Not Active | – | Not Active | Not Active | Not Active | Not Active | Not Active | Not Active | 3260 | 455 | – | – | – | – | – | – | – | – |
| O=c1[nH]cnc2c1ncn2[C@H]1CC[C@@H](CO)O1 [DIDANOSINE] | Not Active | Not Active | Not Active | Not Active | Not Active | Not Active | Not Active | Not Active | – | – | – | – | – | – | – | – | – | – |
| CC(=O)[C@]1(O)Cc2c(O)c3c(c(O)c2[C@@H](O[C@H]2C[C@H](N)[C@H](O)[C@H](C)O2)C1)C(=O)c1ccccc1C3=O [IDARUBICIN] | Not Active | Not Active | Not Active | Not Active | Not Active | Not Active | Not Active | Not Active | – | – | – | – | – | – | – | – | – | – |
| COC(=O)Nc1nc2ccc(Sc3ccccc3)cc2[nH]1 [FENBENDAZOLE] | Not Active | Not Active | Not Active | Not Active | Not Active | Not Active | – | – | – | – | 5990 | – | – | – | – | – | – | – |
| CC(C)(c1ccc(O)cc1)c1ccc(O)cc1 [BISPHENOL A] | – | Not Active | Not Active | Not Active | Not Active | Not Active | Not Active | Not Active | – | – | – | 1300 | – | – | – | – | – | – |
| C=C(Cl)Cl [1,1-DICHLOROETHENE] | Not Active | Not Active | Not Active | Not Active | Not Active | Not Active | Not Active | Not Active | – | – | – | – | – | – | – | – | – | – |
| O=C(O)CCc1nc(-c2ccccc2)c(-c2ccccc2)o1 [OXAPROZIN] | Not Active | Not Active | Not Active | Not Active | Not Active | Not Active | Not Active | Not Active | – | – | – | – | – | – | – | – | – | – |
| NCC(CC(=O)O)c1ccc(Cl)cc1 (configuration not stated) [BACLOFEN] | Not Active | Not Active | Not Active | Not Active | Not Active | Not Active | Not Active | Not Active | – | – | – | – | – | – | – | – | – | – |
| CC[C@H]1OC(=O)[C@H](C)[C@@H](O[C@H]2C[C@@](C)(OC)[C@@H](O)[C@H](C)O2)[C@H](C)[C@@H](O[C@@H]2O[C@H](C)C[C@H](N(C)C)[C@H]2O)[C@](C)(O)C[C@@H](C)C(=O)[C@H](C)[C@@H](O)[C@]1(C)O [ERYTHROMYCIN] | Not Active | Not Active | Not Active | Not Active | Not Active | Not Active | Not Active | Not Active | – | – | – | – | – | – | – | – | – | – |
| C=CCO [ALLYL ALCOHOL] | Not Active | Not Active | Not Active | Not Active | Not Active | Not Active | Not Active | Not Active | – | – | – | – | – | – | – | – | – | – |
| COC(=O)C[C@](O)(CCC(C)(C)O)C(=O)O[C@@H]1C(OC)=C[C@]23CCCN2CCc2cc4c(cc2[C@H]13)OCO4 [HARRINGTONINE] | Not Active | Not Active | Not Active | Not Active | Not Active | Not Active | Not Active | Not Active | – | – | – | – | – | – | – | – | – | – |
| CHROMIC CHLORIDE | Not Active | Not Active | Not Active | Not Active | Not Active | Not Active | Not Active | Not Active | – | – | – | – | Not Active | Not Active | Not Active | Not Active | – | – |
| C#C[C@]1(O)CC[C@H]2[C@@H]3CCC4=CC(=O)CC[C@@H]4[C@H]3CC[C@@]21C [NORETHINDRONE] | Not Active | Not Active | Not Active | Not Active | Not Active | Not Active | Not Active | Not Active | – | – | – | – | – | – | – | – | – | – |
| O=C1CN(/N=C/c2ccc([N+](=O)[O-])o2)C(=O)N1 [NITROFURANTOIN] | Not Active | Not Active | Not Active | Not Active | Not Active | Not Active | Not Active | Not Active | – | – | – | – | – | – | – | – | – | – |
| c1ccc2c(c1)Nc1ccccc1S2 [PHENOTHIAZINE] | – | Not Active | Not Active | Not Active | Not Active | Not Active | Not Active | Not Active | – | – | – | 4640 | – | – | – | – | – | – |
| CC(CN1c2ccccc2Sc2ccccc21)N(C)C (configuration not stated) [PROMETHAZINE] | Not Active | – | Not Active | – | Not Active | Not Active | Not Active | Not Active | 7.58 | 1.06 | – | – | – | – | – | – | 287 | 120 |
| c1ccc(Cn2ccnc2)cc1 | Not Active | Not Active | Not Active | Not Active | Not Active | Not Active | Not Active | Not Active | – | – | – | – | – | – | – | – | – | – |
| CC(C)Cn1cnc2c(N)nc3ccccc3c21 [IMIQUIMOD] | Not Active | Not Active | Not Active | Not Active | Not Active | Not Active | Not Active | Not Active | – | – | – | – | – | – | – | – | – | – |
